This note sets out measurements from PubChem BioAssay (NCI).

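Growth conditions: 96-well plates. Treatment: test compound, 48 hours, 5 concentrations. Analysis: linear interpolation between bracketing concentrations; unreached endpoints set to highest concentration. TGI marks complete inhibition of growth.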

In this experiment the test system is SN12K1 renal. Description: NCI anticancer screen, dose series, 48 h.

The molecule `O=C1N[C@H]2[C@H](O)[C@H](O)[C@@H](O)[C@H](O)[C@@H]2c2cc3c(c(O)c21)OCO3` gave a TGI of 360 nM.
